The record followed here is US7951827B2, “Synthesis and antiprotozoal activity of dicationic 3,5-diphenylisoxazoles” (The University of North Carolina at Chapel Hill, priority 2005, dated 2011).

Like-named read-outs stand apart in the source and are kept apart here.

For data set [1], the system named is Trypanosoma brucei brucei. Briefly: In vitro antiprotozoal activity against Trypanosoma brucei brucei. In kind it is cell-based. Conditions: Trypanosoma brucei. How it is done: (§1) In vitro antiprotozoal activities, see Ismail, M. A., et al., J. Med. Chem. 46, 4761-4769 (2003), and cytotoxicity were measured following established protocols, see Balz, T., et al., EMBO J., 4, 1273-1277 (1985); Räz. B., et al., Acta Trop., 68:139-147 (1997); and Sperandeo, N. R. et al., Chem. Biochem., 4, 69-73 (2003). […] Other positive controls employed were melarsoprol (against T. brucei), chloroquine, and artemisinin (against P. falciparum), and podophyllotoxin (against VERO cells).

The subject of data set [2] is Plasmodium falciparum. As to the kind of experiment: In vitro antiprotozoal activity against Plasmodium falciparum. It counts as cell-based. To be noted: Plasmodium falciparum. How it is done: as §1
Data set [3] can be described thus: Cytotoxicity to VERO cells. In kind it is cell-based, African green monkey (Cercopithecus Aethiops). Conditions: African green monkey (Cercopithecus aethiops), IC50 (μM) Cytotoxicity VERO cells. How it is done:
as §1

The subject of data set [4] is VERO cells. Briefly: Cytotoxicity to VERO cells. Conditions: for IC50: Chlorocebus sabaeus, Vero, read-out: IC50 value against VERO cells. It counts as cell-based, African green monkey (Cercopithecus Aethiops). How it is done: as §1
Setting [5] is: Table 1, read-out: IC50 (μM) Trypanosoma brucei brucei.
The mark [6] stands for this setting: Table 1, read-out: IC50 (μM) Plasmodium falciparum.

In the case of `COc1ccc(C(=N)N)cc1-c1cc(-c2cccc(C(=N)N)c2)no1.Cl.Cl` [Compound 37, 5-(5-Amidino-2-methoxyphenyl)-3-(3-amidinophenyl)isoxazole dihydrochloride], the melting point is 240 °C (dec.). The IC50 in data set [1] (setting [5]) was found to be 0.0074 µM. The IC50 in data set [1] (read-out: IC50 values against T. brucei brucei) was in the range of 0.0035 to 0.009 µM. The IC50 in data set [2] (setting [6]) was determined as 0.0192 µM. The IC50 in data set [2] (read-out: antiplasmodial IC50 values (P. falciparum)) lay within 0.008 to 0.03 µM. This molecule yielded an IC50 in data set [3] of 124 µM. Further, the IC50 in data set [4] is above 100000 nM.
On to `Cl.Cl.N=C(N)c1cccc(-c2cc(-c3cc(C(=N)N)ccc3[N+](=O)[O-])no2)c1` [Compound 38, 3-(5-Amidino-2-nitrophenyl)-5-(3-amidinophenyl)isoxazole dihydrochloride], for which the melting point is 220 °C (dec.). Further, the IC50 in data set [1] (setting [5]) stood at 0.085 µM. Further, the IC50 in data set [2] (setting [6]) is 0.104 µM. For the same molecule, in data set [3], the IC50 amounted to 177 µM. In data set [4], the “toxicity (VERO cells) in words” value is given as “low toxicity” and the IC50 is above 100000 nM.

A word on the IC50: it is the point on the concentration scale where inhibition reaches its midpoint. The melting point is the temperature, or range, at which the solid turns liquid.
